# Measured values from patent US20040241840A1, “Compositions for therapy” (priority 2001, published 2004).
# Counter-ions that a name gives are not always drawn. Marks after values point to notes of the source that are not given here.
# Experiments:
# [1] = target: T1, low affinity glucocorticoid binding site (LAGS) (Rattus norvegicus, UniProt P70580); test: competition analysis with 5×10^−8M [3H]dexamethasone for binding to the LAGS; conditions: for IC50: read-out: IC50% (concentration of unlabelled competitor reducing specific binding of radiolabelled dexamethasone to the LAGS to 50% of control); for competition with dexamethasone for binding to the LAGS (in words): 4° for 8 hours, FIG. 2
# T1 sequence (P70580 2-195): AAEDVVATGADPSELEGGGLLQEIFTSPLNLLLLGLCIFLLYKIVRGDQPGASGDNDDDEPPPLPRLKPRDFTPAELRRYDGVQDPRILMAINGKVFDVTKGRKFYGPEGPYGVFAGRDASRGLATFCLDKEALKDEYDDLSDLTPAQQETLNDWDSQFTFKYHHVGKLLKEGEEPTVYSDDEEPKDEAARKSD
# Experimental: Washed liver microsomes (100,000 g pellet) were prepared after canulating the portal vein of a rat and perfusing blood from the liver using ice-cooled hanks buffer.
# Data were analysed using standard methods.
# Potential competitors were added from ethanol stocks such that the final ethanol concentration in the assay was less than 1% (v/v). Specific binding was determined using conventional methods as described above.
# Free ligand was removed using dextran-charcoal. […] Competitors were added from ethanol stocks such that final ethanol concentration in the assay was less than 1% (v/v).
# [2] = test system: rats administered CCl4 (liver fibrosis); test: CCl4 liver fibrosis rat in vivo model; conditions: PCN once weekly during CCl4 twice weekly for 6 weeks
# Experimental: Rats were administered CCl4 twice weekly for 6 weeks to cause liver fibrosis and administered PCN once weekly during CCl4 treatment.
# [3] = test system: T6 cells (rat hepatic stellate cell line); test: proliferation of T6 cells (cell count); type: cell-based; conditions: re-treated at 24 hours, counted at 48 hours
# Experimental: (§1) However, when rat and human HSCs were treated with ligands of LAGS, the proliferation and activation of the HSCs was inhibited. In addition, T6 cells (rat hepatic stellate cell line) were seeded at low density in 6 well plates in DMEM supplemented with 4% (v/v) FCS. The T6 cells were re-treated at 24 hours and counted at 48 hours. Human hepatic stellate cells were treated at days 2, 5, 7, 9 and 12 of culture and counted on day 15 of culture. Control cells were treated identically with 0.1% (v/v) ethanol used to prepare steroid stocks.
# rat and human HSCs = test: proliferation of rat and human HSCs, results in words; type: cell-based
# Experimental: (§2) Rat hepatic stellate cells (HSCs) were isolated by pronase/collagenase perfusion and purified by isopycnic density centrifugation in Opti-prep™ (Nycomed) and elutriation (Wright et al (2001) Gastroenterology 121(3): 685-698). Human HSCs were isolated from discarded resected liver via a similar protocol. The use of human liver tissue for scientific investigation was approved by the UK South and West Local Research Ethics Commitee and was subject to patient consent.
# (§3) HSCs were cultured in Dulbecco's modified Eagle Medium (DMEM) containing 4.5 g/l of glucose, supplemented with 16% (v/v) fetal calf serum, 80 u/ml penicillin, 80 μg/ml streptomycin and 32 μg/ml gentamycin. Cells were seeded onto plastic culture dishes and incubated at 37° C. in an humidified incubator gassed with 5% CO2 in air. The culture medium was renewed after the first day and thereafter every 3-4 days.
# as §1
# glucocorticoid receptor = target: T2, glucocorticoid receptor (Rattus norvegicus, UniProt P06536); test: specific binding of 10 nM [3H]dexamethasone in rat liver cytosol
# T2 construct: from tissue; host or cells: rat liver cytosol
# T2 sequence (P06536 1-795): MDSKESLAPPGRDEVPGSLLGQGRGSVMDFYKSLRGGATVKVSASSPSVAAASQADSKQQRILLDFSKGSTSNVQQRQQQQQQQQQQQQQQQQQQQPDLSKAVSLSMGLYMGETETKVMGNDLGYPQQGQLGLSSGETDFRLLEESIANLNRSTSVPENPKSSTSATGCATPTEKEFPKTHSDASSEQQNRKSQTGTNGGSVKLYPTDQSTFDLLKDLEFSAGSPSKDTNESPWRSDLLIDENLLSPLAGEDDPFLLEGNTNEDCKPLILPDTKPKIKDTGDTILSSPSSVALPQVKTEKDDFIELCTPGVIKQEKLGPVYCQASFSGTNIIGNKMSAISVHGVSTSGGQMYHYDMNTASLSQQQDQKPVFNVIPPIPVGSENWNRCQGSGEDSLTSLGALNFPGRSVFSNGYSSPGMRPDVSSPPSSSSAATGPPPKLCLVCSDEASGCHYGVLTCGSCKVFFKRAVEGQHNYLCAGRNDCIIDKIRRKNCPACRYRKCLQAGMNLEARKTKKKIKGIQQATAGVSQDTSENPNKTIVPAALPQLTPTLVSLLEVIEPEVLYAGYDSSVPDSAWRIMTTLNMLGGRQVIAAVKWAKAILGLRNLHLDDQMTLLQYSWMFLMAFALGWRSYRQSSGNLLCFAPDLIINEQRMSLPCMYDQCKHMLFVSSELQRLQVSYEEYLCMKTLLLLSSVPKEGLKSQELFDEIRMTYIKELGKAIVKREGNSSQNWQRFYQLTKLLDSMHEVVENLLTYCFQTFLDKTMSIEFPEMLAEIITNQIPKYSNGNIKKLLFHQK
# [4] = target: T1, low affinity glucocorticoid binding site (LAGS); test: specific binding of 10 nM [3H]dexamethasone in rat liver microsomes; conditions: read-out: % specific binding compared to dexamethasone alone, microsomes
# [5] = test system: α-smooth muscle actin expression in human HSCs; test: α-smooth muscle actin expression in cultured human hepatic stellate cells (Western blotting); type: cell-based; conditions: human HSCs cultured for 15 days, FIG. 3
# Experimental: The effect of LAGS ligands on activation to the pro-fibrogenic phenotype was investigated by measuring the effect of LAGS ligands on expression of α-smooth muscle actin in cultured human hepatic stellate cells. […] Whole cell extracts (10 μg protein/lane) were probed for alpha-smooth muscle actin and GFAP (glial fibrillary acidic protein—loading control) protein expression by Western blotting. Scanned blots were quantitated using Phoretix software (Nonlinear Dynamics, Newcastle, UK).
# human HSCs = test: proliferation of human hepatic stellate cells (cell count); type: cell-based; conditions: treated at days 2, 5, 7, 9 and 12, counted on day 15
# Experimental: as §2, §3
# However, when rat and human HSCs were treated with ligands of LAGS, the proliferation and activation of the HSCs was inhibited. In addition, T6 cells (rat hepatic stellate cell line) were seeded at low density in 6 well plates in DMEM supplemented with 4% (v/v) FCS. The T6 cells were re-treated at 24 hours and counted at 48 hours. Human hepatic stellate cells were treated at days 2, 5, 7, 9 and 12 of culture and counted on day 15 of culture. […]
# [6] = target: T1, low affinity glucocorticoid binding site (LAGS); conditions: 1 μM; Wright & Paine (1995); cited from earlier work
molecule,measurement,setting,value
CC(=NOCC(=O)O)[C@H]1CC[C@H]2[C@@H]3CCC4=C[C@@H](O)CC[C@]4(C)[C@H]3CC[C@]12C [4 pregnene-3β-ol-20-one carboxymethyloxime],IC50,[1],> 100 µM
CC(=O)[C@H]1CC[C@H]2[C@@H]3C[C@@H](O)C4=CC(=O)CC[C@]4(C)[C@H]3CC[C@]12C [6α-hydroxyprogesterone],IC50,[1],5 µM
CC(=O)O[C@@H]1C[C@H]2[C@@H]3CC[C@H](C(C)=O)[C@@]3(C)CC[C@@H]2[C@@]2(C)CCC(=O)C=C12 [6β-progesterone acetate],IC50,[1],0.5 µM
CC(=O)[C@H]1CC[C@H]2[C@@H]3CCC4=CC(=O)CC[C@]4(C)[C@H]3[C@H](O)C[C@]12C [11α-hydroxyprogesterone],IC50,[1],0.1 µM
CC(=O)O[C@@H]1C[C@]2(C)[C@@H](C(C)=O)CC[C@H]2[C@@H]2CCC3=CC(=O)CC[C@]3(C)[C@H]21 [11α-progesterone acetate],IC50,[1],0.1 µM
CC(=O)[C@H]1CC[C@H]2[C@@H]3CCC4=CC(=O)CC[C@]4(C)[C@H]3[C@@H](OS(=O)(=O)c3ccc(C)cc3)C[C@]12C [11β-progesterone tosylate],IC50,[1],10 µM
"CC1CC2C3CCC4=CC(=O)C=CC4(C)C3(F)C(O)CC2(C)C1(O)C(=O)O (stereo not drawn) [17β-carboxylic acid derivative, 9α-fluoro 16α-methyl-11β,17α-dihydroxy-1,4-pregn-3-one 17-carboxylic acid]",IC50,[1],100 µM
"CC(=O)[C@H]1[C@H](C#N)C[C@H]2[C@@H]3CC=C4C[C@@H](O)CC[C@]4(C)[C@H]3CC[C@@]21C [PCN, pregnenolone 16-alpha carbonitrile]",Sirius red staining (collagens) in liver,[2],significantly reduced
same,"blinded histological scoring of H&E stained liver sections, CCl4 versus CCl4/PCN treated rats",[2],no significant difference
same,"liver serum (AST) enzyme levels, CCl4 versus CCl4/PCN treated rats",[2],no significant difference
same,number of cells and extent of α-smooth muscle actin staining in livers,[2],significantly reduced
same,"% proliferation versus control (100%), T6 cells",[3]; 10 μM,55 +/− 17%
same,effect on cell proliferation (in words),rat and human HSCs,inhibited in their ability to proliferate
same,competition with dexamethasone for binding to the LAGS (in words),[1],compete with dexamethasone for binding to the LAGS
CC#C[C@]1(O)CC[C@H]2[C@@H]3CCC4=CC(=O)CCC4=C3[C@@H](c3ccc(N(C)C)cc3)C[C@@]21C [RU486],"% specific binding compared to dexamethasone alone, cytosol","glucocorticoid receptor; 10 μM RU486, mean and SD of 3 samples",0* %
same,activity at 10 µM,[4],123%
"CO[C@H]1C[C@H](O[C@H]2[C@H](C)[C@@H](O[C@@H]3O[C@H](C)C[C@H](N(C)C)[C@H]3OC(C)=O)[C@@H](C)C[C@@]3(CO3)C(=O)[C@H](C)[C@@H](OC(C)=O)[C@@H](C)[C@@H](C)OC(=O)[C@@H]2C)O[C@@H](C)[C@@H]1OC(C)=O [TAO, troleandomycin]","% proliferation versus control (100%), T6 cells",[3]; 100 μM,106 +/− 2.8%
Clc1ccccc1C(c1ccccc1)(c1ccccc1)n1ccnc1 [clotrimazole],expression of α-smooth muscle actin (in words),[5]; 1 μM clotrimazole,inhibited expression of α-smooth muscle actin
same,"% proliferation versus control (100%), T6 cells",[3]; 5 μM,18 +/− 4.7%
same,effect on cell proliferation (in words),rat and human HSCs,inhibited in their ability to proliferate
same,"% proliferation versus control (100%), human HSCs",human HSCs; 5 μM,25 +/− 13%
same,competition with dexamethasone for binding to the LAGS (in words),[1],compete with dexamethasone for binding to the LAGS
C[C@@H]1C[C@H]2[C@@H]3CCC4=CC(=O)C=C[C@]4(C)[C@@]3(F)[C@@H](O)C[C@]2(C)[C@@]1(O)C(=O)COS(C)(=O)=O [dexamethasone mesylate],IC50,[1],10 µM
C[C@@H]1C[C@H]2[C@@H]3CCC4=CC(=O)C=C[C@]4(C)[C@@]3(F)[C@@H](O)C[C@]2(C)[C@@]1(O)C(=O)CO [dexamethasone],effect on cell proliferation (in words),rat and human HSCs,no effect
CC(C)(C(=O)c1cccnc1)c1cccnc1 [metyrapone],"% specific binding compared to dexamethasone alone, cytosol","glucocorticoid receptor; metyrapone, concentration not given, mean and SD of 3 samples",105 +/− 4.0%
same,expression of α-smooth muscle actin (in words),[5]; 200 μM metyrapone,inhibited expression of α-smooth muscle actin
same,"% proliferation versus control (100%), T6 cells",[3]; 500 μM,52 +/− 5.7%
same,effect on cell proliferation (in words),rat and human HSCs,inhibited in their ability to proliferate
same,"% proliferation versus control (100%), human HSCs",human HSCs; 500 μM,76 +/− 18%
same,competition with dexamethasone for binding to the LAGS (in words),[1],compete with dexamethasone for binding to the LAGS
CCC1(c2ccccc2)C(=O)NC(=O)NC1=O [phenobarbitone],competition with dexamethasone for binding to the LAGS (in words),[1],compete with dexamethasone for binding to the LAGS
CC(=O)C1CCC2C3CCC4=CC(=O)CCC4(C)C3CCC12C (stereo not shown) [progesterone],effect on cell proliferation (in words),rat and human HSCs,no effect
same,competition with dexamethasone for binding to the LAGS (in words),[1],compete with dexamethasone for binding to the LAGS
betamethasonenone,IC50,[1],5 µM
biotinylated dexamethasone,IC50,[1],> 100 µM
oestradiol,expression of α-smooth muscle actin (in words),[5]; 1 μM oestradiol,inhibited expression of α-smooth muscle actin
same,binding to the LAGS (in words),[6],a ligand for the LAGS at this concentration
